Experimental data taken from PubChem BioAssay (NCI).
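Test compounds were applied to cells in 96-well plates for 48 hours at 5 doses. TGI: concentration producing complete growth inhibition.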

Columns and labels:
Assay in all cases: growth of human tumour cells (NCI), 48 h
[1] = system: SF-268 CNS
[2] = system: COLO 205 colon
[3] = system: SK-MEL-5 melanoma
[4] = system: NCI-H226 lung
[5] = system: MOLT-4 leukemia
[6] = system: K-562 leukemia
[7] = system: HCC-2998 colon
[8] = system: CAKI-1 renal
[9] = system: ACHN renal
[10] = system: M14 melanoma
[11] = system: OVCAR-4 ovarian
[12] = system: NCI/ADR-RES ovarian
[13] = system: TK-10 renal
[14] = system: SNB-19 CNS
[15] = system: SF-539 CNS
[16] = system: SW-620 colon
[17] = system: DU-145 prostate
[18] = system: HCT-15 colon
[19] = system: MDA-MB-231 breast
[20] = system: IGROV1 ovarian
[21] = system: T-47D breast
[22] = system: MALME-3M melanoma
[23] = system: NCI-H460 lung
[24] = system: NCI-H23 lung
[25] = system: SK-MEL-2 melanoma
[26] = system: SK-OV-3 ovarian
[27] = system: HOP-92 NSCLC
[28] = system: U251 CNS
[29] = system: OVCAR-8 ovarian
[30] = system: SNB-75 CNS
[31] = system: HT29 colon
[32] = system: MCF7 breast
[33] = system: SK-MEL-28 melanoma
[34] = system: OVCAR-3 ovarian
[35] = system: MDA-N
[36] = system: KM12 colon
[37] = system: PC-3 prostate
[38] = system: LOX IMVI melanoma
[39] = system: A498 renal
[40] = system: UACC-62 melanoma
[41] = system: NCI-H522 lung
[42] = system: A549 NSCLC
[43] = system: RXF 393 renal
[44] = system: RPMI-8226 leukemia
[45] = system: CCRF-CEM leukemia
[46] = system: MDA-MB-435
[47] = system: HCT-116 colon
[48] = system: HOP-62 NSCLC
[49] = system: SR leukemia
[50] = system: OVCAR-5 ovarian
[51] = system: SF-295 CNS
[52] = system: UO-31 renal
[53] = system: 786-0 renal
[54] = system: UACC-257 melanoma
[55] = system: EKVX NSCLC
[56] = system: BT-549 breast
[57] = system: HS 578T breast
[58] = system: HL-60(TB) leukemia
[59] = system: SN12C renal

Measured: TGI

Cc1ccc(S(=O)(=O)NC(=O)NCC(=O)NCC(=O)O)cc1
not listed: [59]
> 100 µM: all other assays above

Cn1cnc([N+](=O)[O-])c1SCC(=O)O
not listed: [5] | [15]
> 100 µM: all other assays above
